{"source": "the kinase profiling compilation of Christmann-Franck et al. (2016)", "assay_in_all_cases": "KINOMEscan competition binding", "conditions_in_all_cases": "compound 10.0 µM", "key": {"[1]": {"tested_on": "ABL1 (human), P00519 [T315I]"}, "ABL2 (human)": {"biological_target": "ABL2 (human) (UniProt P42684)", "sequence (P42684 whole entry, looked up)": "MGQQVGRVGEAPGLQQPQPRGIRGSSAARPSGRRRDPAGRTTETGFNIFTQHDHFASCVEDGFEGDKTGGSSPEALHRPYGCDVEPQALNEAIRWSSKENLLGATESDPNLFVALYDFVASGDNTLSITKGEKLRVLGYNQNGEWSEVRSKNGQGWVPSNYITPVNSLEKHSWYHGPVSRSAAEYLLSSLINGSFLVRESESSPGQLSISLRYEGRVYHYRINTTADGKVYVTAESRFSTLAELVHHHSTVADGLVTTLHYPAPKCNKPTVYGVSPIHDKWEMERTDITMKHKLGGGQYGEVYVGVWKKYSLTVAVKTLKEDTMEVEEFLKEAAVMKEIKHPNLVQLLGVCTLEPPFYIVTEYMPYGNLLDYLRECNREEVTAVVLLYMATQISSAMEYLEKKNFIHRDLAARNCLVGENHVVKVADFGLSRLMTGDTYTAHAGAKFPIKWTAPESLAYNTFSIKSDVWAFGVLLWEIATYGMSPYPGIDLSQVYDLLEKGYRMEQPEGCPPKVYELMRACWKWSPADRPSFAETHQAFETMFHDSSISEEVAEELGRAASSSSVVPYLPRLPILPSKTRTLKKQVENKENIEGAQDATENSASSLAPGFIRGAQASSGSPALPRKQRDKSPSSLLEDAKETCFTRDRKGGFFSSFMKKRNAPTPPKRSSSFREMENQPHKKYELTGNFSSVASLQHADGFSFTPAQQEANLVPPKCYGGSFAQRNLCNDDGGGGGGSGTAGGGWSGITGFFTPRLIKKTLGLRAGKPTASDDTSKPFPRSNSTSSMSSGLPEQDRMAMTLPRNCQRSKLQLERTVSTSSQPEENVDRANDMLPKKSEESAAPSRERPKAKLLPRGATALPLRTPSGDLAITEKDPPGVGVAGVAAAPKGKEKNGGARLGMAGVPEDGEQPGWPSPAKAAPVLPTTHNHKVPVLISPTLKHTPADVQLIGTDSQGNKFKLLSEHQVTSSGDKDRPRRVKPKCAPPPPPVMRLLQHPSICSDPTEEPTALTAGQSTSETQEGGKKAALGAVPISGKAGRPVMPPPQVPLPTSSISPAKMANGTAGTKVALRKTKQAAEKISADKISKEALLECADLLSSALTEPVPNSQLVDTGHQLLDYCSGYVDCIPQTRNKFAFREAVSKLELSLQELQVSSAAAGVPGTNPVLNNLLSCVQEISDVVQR"}, "ADCK4 (human)": {"biological_target": "ADCK4 (human) (UniProt Q96D53)"}, "AKT1 (human)": {"biological_target": "AKT1 (human) (UniProt P31749)"}, "CAMK1 (human)": {"biological_target": "CAMK1 (human) (UniProt Q14012)", "sequence (Q14012 whole entry, looked up)": "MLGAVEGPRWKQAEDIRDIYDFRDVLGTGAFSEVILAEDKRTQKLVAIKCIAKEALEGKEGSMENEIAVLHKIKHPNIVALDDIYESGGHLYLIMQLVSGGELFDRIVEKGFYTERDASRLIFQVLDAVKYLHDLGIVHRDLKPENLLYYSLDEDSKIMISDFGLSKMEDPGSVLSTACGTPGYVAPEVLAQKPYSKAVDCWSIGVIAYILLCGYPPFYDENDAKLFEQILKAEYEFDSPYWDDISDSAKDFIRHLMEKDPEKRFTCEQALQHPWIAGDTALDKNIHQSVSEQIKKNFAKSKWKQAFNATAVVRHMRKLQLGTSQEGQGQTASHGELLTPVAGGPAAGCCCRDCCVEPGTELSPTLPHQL"}, "CAMK2B (human)": {"biological_target": "CAMK2B (human) (UniProt Q13554)"}, "CDK2 (human)": {"biological_target": "CDK2 (human) (UniProt P24941)"}, "CSF1R (human)": {"biological_target": "CSF1R (human) (UniProt P07333)"}, "EGFR (human)": {"biological_target": "EGFR (human) (UniProt P00533)"}, "[2]": {"tested_on": "EGFR (human), P00533 [752-759 del]"}, "[3]": {"tested_on": "EGFR (human), P00533 [L861Q]"}, "EPHB2 (human)": {"biological_target": "EPHB2 (human) (UniProt P29323)"}, "ERBB2 (human)": {"biological_target": "ERBB2 (human) (UniProt P04626)"}, "FES (human)": {"biological_target": "FES (human) (UniProt P07332)"}, "FGR (human)": {"biological_target": "FGR (human) (UniProt P09769)"}, "FLT1 (human)": {"biological_target": "FLT1 (human) (UniProt P17948)"}, "HCK (human)": {"biological_target": "HCK (human) (UniProt P08631)"}, "IRAK3 (human)": {"biological_target": "IRAK3 (human) (UniProt Q9Y616)"}, "LIMK1 (human)": {"biological_target": "LIMK1 (human) (UniProt P53667)", "sequence (P53667 whole entry, looked up)": "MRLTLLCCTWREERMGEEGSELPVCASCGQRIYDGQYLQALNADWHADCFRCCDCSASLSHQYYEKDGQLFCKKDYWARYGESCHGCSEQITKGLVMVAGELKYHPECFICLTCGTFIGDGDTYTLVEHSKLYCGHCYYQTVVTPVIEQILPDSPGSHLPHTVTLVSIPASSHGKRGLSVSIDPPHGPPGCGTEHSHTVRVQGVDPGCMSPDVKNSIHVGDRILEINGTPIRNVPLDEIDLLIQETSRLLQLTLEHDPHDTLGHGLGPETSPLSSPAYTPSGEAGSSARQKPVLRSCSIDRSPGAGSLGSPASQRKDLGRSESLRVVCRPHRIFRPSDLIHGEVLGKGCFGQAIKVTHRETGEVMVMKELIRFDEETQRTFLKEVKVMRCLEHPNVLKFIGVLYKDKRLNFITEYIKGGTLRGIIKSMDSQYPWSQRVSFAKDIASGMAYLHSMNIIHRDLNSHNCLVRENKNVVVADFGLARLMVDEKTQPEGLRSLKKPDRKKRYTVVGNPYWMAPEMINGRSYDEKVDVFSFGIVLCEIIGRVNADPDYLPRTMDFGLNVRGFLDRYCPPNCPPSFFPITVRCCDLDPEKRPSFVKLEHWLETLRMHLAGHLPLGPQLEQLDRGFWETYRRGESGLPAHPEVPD"}, "MAP3K10 (human)": {"biological_target": "MAP3K10 (human) (UniProt Q02779)", "sequence (Q02779 whole entry, looked up)": "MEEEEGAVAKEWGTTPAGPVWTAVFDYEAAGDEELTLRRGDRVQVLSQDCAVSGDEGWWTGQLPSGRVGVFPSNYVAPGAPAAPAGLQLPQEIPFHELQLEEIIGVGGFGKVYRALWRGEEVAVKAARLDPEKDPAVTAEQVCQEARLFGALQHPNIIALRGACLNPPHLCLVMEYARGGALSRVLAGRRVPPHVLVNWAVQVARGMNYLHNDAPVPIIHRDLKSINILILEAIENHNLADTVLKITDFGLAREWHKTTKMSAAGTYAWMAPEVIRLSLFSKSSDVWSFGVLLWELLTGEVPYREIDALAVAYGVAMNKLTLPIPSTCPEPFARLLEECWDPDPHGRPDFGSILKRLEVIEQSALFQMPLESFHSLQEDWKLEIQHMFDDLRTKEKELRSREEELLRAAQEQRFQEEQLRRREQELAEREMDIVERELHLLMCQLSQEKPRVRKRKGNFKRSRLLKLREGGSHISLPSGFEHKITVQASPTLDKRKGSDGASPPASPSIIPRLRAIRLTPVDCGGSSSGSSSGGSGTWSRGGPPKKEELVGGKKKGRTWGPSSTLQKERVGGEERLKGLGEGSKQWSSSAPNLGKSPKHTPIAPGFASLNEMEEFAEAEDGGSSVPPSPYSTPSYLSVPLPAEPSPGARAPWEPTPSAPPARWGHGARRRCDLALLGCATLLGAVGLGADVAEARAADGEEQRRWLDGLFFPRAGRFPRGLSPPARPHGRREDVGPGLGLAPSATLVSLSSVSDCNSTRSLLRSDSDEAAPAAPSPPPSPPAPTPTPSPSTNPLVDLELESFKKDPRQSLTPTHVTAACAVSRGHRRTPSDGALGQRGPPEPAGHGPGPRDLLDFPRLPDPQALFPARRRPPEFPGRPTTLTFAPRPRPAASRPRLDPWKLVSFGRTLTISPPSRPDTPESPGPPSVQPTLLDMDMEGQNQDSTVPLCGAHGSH"}, "MAP3K4 (human)": {"biological_target": "MAP3K4 (human) (UniProt Q9Y6R4)"}, "MAP4K5 (human)": {"biological_target": "MAP4K5 (human) (UniProt Q9Y4K4)"}, "MAPK10 (human)": {"biological_target": "MAPK10 (human) (UniProt P53779)"}, "MAPK3 (human)": {"biological_target": "MAPK3 (human) (UniProt P27361)", "sequence (P27361 whole entry, looked up)": "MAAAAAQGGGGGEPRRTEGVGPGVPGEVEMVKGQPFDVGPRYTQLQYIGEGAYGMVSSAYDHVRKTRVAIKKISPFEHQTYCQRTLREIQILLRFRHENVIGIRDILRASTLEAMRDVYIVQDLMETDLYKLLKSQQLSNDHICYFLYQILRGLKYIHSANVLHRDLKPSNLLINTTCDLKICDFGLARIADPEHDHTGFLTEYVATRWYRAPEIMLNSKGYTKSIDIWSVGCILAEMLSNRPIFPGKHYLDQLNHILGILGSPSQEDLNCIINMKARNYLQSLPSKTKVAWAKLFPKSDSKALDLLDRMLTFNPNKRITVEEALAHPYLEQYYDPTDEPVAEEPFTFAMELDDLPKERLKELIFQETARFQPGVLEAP"}, "MAPKAPK2 (human)": {"biological_target": "MAPKAPK2 (human) (UniProt P49137)"}, "MERTK (human)": {"biological_target": "MERTK (human) (UniProt Q12866)"}, "MST1R (human)": {"biological_target": "MST1R (human) (UniProt Q04912)"}, "NEK5 (human)": {"biological_target": "NEK5 (human) (UniProt Q6P3R8)"}, "NLK (human)": {"biological_target": "NLK (human) (UniProt Q9UBE8)"}, "NUAK2 (human)": {"biological_target": "NUAK2 (human) (UniProt Q9H093)"}, "PIK3CA (human)": {"biological_target": "PIK3CA (human) (UniProt P42336)"}, "PRKACB (human)": {"biological_target": "PRKACB (human) (UniProt P22694)"}, "PRKCE (human)": {"biological_target": "PRKCE (human) (UniProt Q02156)"}, "PRKCH (human)": {"biological_target": "PRKCH (human) (UniProt P24723)"}, "PTK2B (human)": {"biological_target": "PTK2B (human) (UniProt Q14289)"}, "SGK110 (human)": {"biological_target": "SGK110 (human) (UniProt P0C264)"}, "SRPK1 (human)": {"biological_target": "SRPK1 (human) (UniProt Q96SB4)"}, "STK32B (human)": {"biological_target": "STK32B (human) (UniProt Q9NY57)"}, "SYK (human)": {"biological_target": "SYK (human) (UniProt P43405)"}, "TYRO3 (human)": {"biological_target": "TYRO3 (human) (UniProt Q06418)"}, "ULK1 (human)": {"biological_target": "ULK1 (human) (UniProt O75385)", "sequence (O75385 whole entry, looked up)": "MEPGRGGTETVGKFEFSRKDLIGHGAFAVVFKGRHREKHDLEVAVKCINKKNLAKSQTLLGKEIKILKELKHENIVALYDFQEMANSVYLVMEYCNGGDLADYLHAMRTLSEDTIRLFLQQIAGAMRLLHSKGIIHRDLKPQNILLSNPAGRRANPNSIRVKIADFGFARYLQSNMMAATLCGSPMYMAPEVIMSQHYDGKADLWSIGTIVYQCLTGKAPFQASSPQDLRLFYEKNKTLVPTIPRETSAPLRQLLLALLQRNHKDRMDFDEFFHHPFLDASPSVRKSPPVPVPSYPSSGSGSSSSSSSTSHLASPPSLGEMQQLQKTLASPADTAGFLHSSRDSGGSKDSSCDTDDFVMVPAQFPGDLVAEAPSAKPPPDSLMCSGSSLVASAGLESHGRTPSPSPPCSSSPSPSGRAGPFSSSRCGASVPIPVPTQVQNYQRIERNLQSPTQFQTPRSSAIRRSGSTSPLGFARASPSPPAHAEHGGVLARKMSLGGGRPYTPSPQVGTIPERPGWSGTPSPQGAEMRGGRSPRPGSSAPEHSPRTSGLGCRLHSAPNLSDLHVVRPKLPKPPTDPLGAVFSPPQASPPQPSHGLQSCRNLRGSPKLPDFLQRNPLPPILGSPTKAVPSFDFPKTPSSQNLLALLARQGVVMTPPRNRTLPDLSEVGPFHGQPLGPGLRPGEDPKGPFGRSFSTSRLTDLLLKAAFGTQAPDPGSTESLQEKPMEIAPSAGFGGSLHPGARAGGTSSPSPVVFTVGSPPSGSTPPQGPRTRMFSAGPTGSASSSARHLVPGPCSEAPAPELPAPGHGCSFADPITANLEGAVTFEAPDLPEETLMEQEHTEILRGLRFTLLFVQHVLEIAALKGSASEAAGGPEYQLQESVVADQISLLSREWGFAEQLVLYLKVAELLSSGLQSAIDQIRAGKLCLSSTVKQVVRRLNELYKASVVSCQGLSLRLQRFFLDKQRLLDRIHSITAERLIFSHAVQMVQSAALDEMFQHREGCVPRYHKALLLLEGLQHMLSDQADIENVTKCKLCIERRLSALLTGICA"}, "ULK3 (human)": {"biological_target": "ULK3 (human) (UniProt Q6PHR2)", "sequence (Q6PHR2 whole entry, looked up)": "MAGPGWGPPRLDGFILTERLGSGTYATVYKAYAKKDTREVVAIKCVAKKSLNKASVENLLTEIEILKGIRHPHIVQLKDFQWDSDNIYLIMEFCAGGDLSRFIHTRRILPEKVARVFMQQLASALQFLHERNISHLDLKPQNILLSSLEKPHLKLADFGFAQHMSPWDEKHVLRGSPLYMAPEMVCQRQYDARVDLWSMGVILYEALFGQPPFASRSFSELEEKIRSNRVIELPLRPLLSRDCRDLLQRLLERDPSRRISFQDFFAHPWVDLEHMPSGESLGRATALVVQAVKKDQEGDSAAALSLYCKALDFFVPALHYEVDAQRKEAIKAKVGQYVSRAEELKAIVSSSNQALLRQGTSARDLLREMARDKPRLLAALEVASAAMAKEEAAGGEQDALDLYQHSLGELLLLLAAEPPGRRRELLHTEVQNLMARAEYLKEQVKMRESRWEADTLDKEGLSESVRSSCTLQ"}}}
{"molecule": "CN1C(=O)c2ccccc2N(C)c2nc(Nc3ccc(N4CCC(O)CC4)cc3)ncc21", "values": [{"measurement": "kinase still bound, per cent of control", "setting": "[1]", "result": 3.6, "unit": "%"}, {"measurement": "kinase still bound, per cent of control", "setting": "ABL2 (human)", "result": 33, "unit": "%"}, {"measurement": "kinase still bound, per cent of control", "setting": "ADCK4 (human)", "result": 78, "unit": "%"}, {"measurement": "kinase still bound, per cent of control", "setting": "AKT1 (human)", "result": 100, "unit": "%"}, {"measurement": "kinase still bound, per cent of control", "setting": "CAMK1 (human)", "result": 100, "unit": "%"}, {"measurement": "kinase still bound, per cent of control", "setting": "CAMK2B (human)", "result": 100, "unit": "%"}, {"measurement": "kinase still bound, per cent of control", "setting": "CDK2 (human)", "result": 91, "unit": "%"}, {"measurement": "kinase still bound, per cent of control", "setting": "CSF1R (human)", "result": 5.8, "unit": "%"}, {"measurement": "kinase still bound, per cent of control", "setting": "EGFR (human)", "result": 100, "unit": "%"}, {"measurement": "kinase still bound, per cent of control", "setting": "[2]", "result": 92, "unit": "%"}, {"measurement": "kinase still bound, per cent of control", "setting": "[3]", "result": 100, "unit": "%"}, {"measurement": "kinase still bound, per cent of control", "setting": "EPHB2 (human)", "result": 100, "unit": "%"}, {"measurement": "kinase still bound, per cent of control", "setting": "ERBB2 (human)", "result": 99, "unit": "%"}, {"measurement": "kinase still bound, per cent of control", "setting": "FES (human)", "result": 100, "unit": "%"}, {"measurement": "kinase still bound, per cent of control", "setting": "FGR (human)", "result": 6.6, "unit": "%"}, {"measurement": "kinase still bound, per cent of control", "setting": "FLT1 (human)", "result": 94, "unit": "%"}, {"measurement": "kinase still bound, per cent of control", "setting": "HCK (human)", "result": 35, "unit": "%"}, {"measurement": "kinase still bound, per cent of control", "setting": "IRAK3 (human)", "result": 82, "unit": "%"}, {"measurement": "kinase still bound, per cent of control", "setting": "LIMK1 (human)", "result": 97, "unit": "%"}, {"measurement": "kinase still bound, per cent of control", "setting": "MAP3K10 (human)", "result": 100, "unit": "%"}, {"measurement": "kinase still bound, per cent of control", "setting": "MAP3K4 (human)", "result": 100, "unit": "%"}, {"measurement": "kinase still bound, per cent of control", "setting": "MAP4K5 (human)", "result": 85, "unit": "%"}, {"measurement": "kinase still bound, per cent of control", "setting": "MAPK10 (human)", "result": 100, "unit": "%"}, {"measurement": "kinase still bound, per cent of control", "setting": "MAPK3 (human)", "result": 100, "unit": "%"}, {"measurement": "kinase still bound, per cent of control", "setting": "MAPKAPK2 (human)", "result": 100, "unit": "%"}, {"measurement": "kinase still bound, per cent of control", "setting": "MERTK (human)", "result": 100, "unit": "%"}, {"measurement": "kinase still bound, per cent of control", "setting": "MST1R (human)", "result": 94, "unit": "%"}, {"measurement": "kinase still bound, per cent of control", "setting": "NEK5 (human)", "result": 100, "unit": "%"}, {"measurement": "kinase still bound, per cent of control", "setting": "NLK (human)", "result": 74, "unit": "%"}, {"measurement": "kinase still bound, per cent of control", "setting": "NUAK2 (human)", "result": 23, "unit": "%"}, {"measurement": "kinase still bound, per cent of control", "setting": "PIK3CA (human)", "result": 98, "unit": "%"}, {"measurement": "kinase still bound, per cent of control", "setting": "PRKACB (human)", "result": 100, "unit": "%"}, {"measurement": "kinase still bound, per cent of control", "setting": "PRKCE (human)", "result": 99, "unit": "%"}, {"measurement": "kinase still bound, per cent of control", "setting": "PRKCH (human)", "result": 100, "unit": "%"}, {"measurement": "kinase still bound, per cent of control", "setting": "PTK2B (human)", "result": 78, "unit": "%"}, {"measurement": "kinase still bound, per cent of control", "setting": "SGK110 (human)", "result": 5.4, "unit": "%"}, {"measurement": "kinase still bound, per cent of control", "setting": "SRPK1 (human)", "result": 100, "unit": "%"}, {"measurement": "kinase still bound, per cent of control", "setting": "STK32B (human)", "result": 100, "unit": "%"}, {"measurement": "kinase still bound, per cent of control", "setting": "SYK (human)", "result": 61, "unit": "%"}, {"measurement": "kinase still bound, per cent of control", "setting": "TYRO3 (human)", "result": 100, "unit": "%"}, {"measurement": "kinase still bound, per cent of control", "setting": "ULK1 (human)", "result": 16, "unit": "%"}, {"measurement": "kinase still bound, per cent of control", "setting": "ULK3 (human)", "result": 77, "unit": "%"}]}
